In patent US9975853B2, “Tetrahydroisoquinolinone derivatives and their use in the inhibition of the HSP70 protein” (Julius-Maximilians-Universitaet Wuerzburg, priority 2014, dated 2018):

System: INA-6
Experiment: Cell viability assay (annexin V-FITC/propidium iodide, flow cytometry) in INA-6 multiple myeloma cells
Format: cell-based, human
Conditions: Homo sapiens, INA-6, 72 h, INA-6 multiple myeloma cells, 72 hours of treatment, viable cell fraction; mean of at least three determinations; read-out: INA-6 EC50(±sdv)
Protocol: The effect of pharmacological Hsp70 inhibition on cell viability was analyzed after 72 hours of treatment in both non-malignant (mononuclear cells from the peripheral blood) and malignant lymphocytes (multiple myeloma cells). The mononuclear cells were separated from the peripheral blood of healthy donors by Ficoll-Hypaque density gradient centrifugation. The human cell line INA-6 represents a well-established model for multiple myeloma. The percentage of viable and apoptotic cell fractions was assessed using an annexin V-FITC/propidium iodide (PI) staining kit (Bender MedSystems, Vienna, Austria) according to manufacturer's instructions. In brief, cells were washed in PBS, incubated for 10 min in 100 ml binding buffer (10 mM HEPES/NaOH, pH 7.4, 140 mM NaCl, 2.5 mM CaCl2) containing 2.5 ml annexin V-FITC mix and 1 mg/ml propidium iodide (PI), subsequently diluted with 100 ml binding buffer and analyzed by flow cytometry (FACSCalibur/CELLQuest; Becton Dickinson, Heidelberg, Germany). Whereas viable cells are negative for both, annexin V-FITC and PI, early apoptotic cells show a positive annexin V-FITC staining, and cells in a late apoptotic stage which lose their membrane integrity additionally incorporate DNA-binding PI. To establish kill curves, concentrations of the tested compounds were titrated, and the measured viable cell fractions were further analyzed using the Prism Calculation Software (GraphPad Software Inc., La Jolla, USA).
In FIG. 2A Western blot analyses of caspases 9 and 3, and the caspase substrate PARP (upper panel), and viability analyses (lower panel) of INA-6 MM cells upon treatment with trans-7b for 24 hours are shown. INA-6 cells were either incubated with DMSO (as a solvent control) or with 0.6 μM of trans-7b, and additionally incubated either with DMSO or the pan-caspase inhibitor Z-VAD-FMK prior to analyses by Western or viability assessment (without Z-VAD-FMK co-treatment) by Annexin V/propidum iodide double staining. For Western analyses INA-6 cell pellets were dissolved in lysis buffer (20 mM HEPES (pH 7.9), 350 mM NaCl, 1 mM MgCl2, 0.5 mM EDTA, 0.1 mM EGTA, 1% NP40, 0.5 mM dithiothreiol (DTT), 1 mM Na3VO4, 0.1 mM PMSF and 1 μg/ml aprotinin). Lysates were cleared by centrifugation, measured by quantitative protein assay (Bio-Rad, München, Germany) and subjected to SDS gel electrophoresis. Proteins were transferred onto nitrocellulose membranes (Schleicher & Schuell, Dassel, Germany), incubated with antibodies specific for caspase 9, caspase 3 or PARP (Cell Signaling Technology, Frankfurt a.Main, Germany) according to standard procedures and visualized with secondary anti-rabbit horseradish peroxidase (HRP)-conjugated antibodies using an enhanced chemoluminescence detection system (ECL, Amersham, Freiburg, Germany). […] Annexin V/propidium iodide (PI) staining was performed using a fluorescein isothiocyanate (FITC) conjugated recombinant human annexin/propidium iodide kit (BenderMedSystems, Vienna, Austria) according to the manufacturer's instructions. INA-6 cells were washed in PBS, incubated for 15 minutes in 100 ml binding buffer (10 mM HEPES/NaOH, pH 7.4, 140 mM NaCl, 2.5 mM CaCl2) containing 2.5 mL annexin V-FITC mix and 1 mg/ml PI and analyzed by flow cytometry (FACSCalibur/CELLQuest; Becton Dickinson, Heidelberg, Germany). Whereas early apoptosis is characterized by positive annexin V-FITC staining reaction, cells in a late apoptotic stage lose their membrane integrity and additionally incorporate PI. Thus, the fraction of viable cells remains negative for both annexin V-FITC and PI. […] Based on the above described experiments also viability analyses of INA-6 in comparison with non-malignant PBMCs were performed choosing a longer incubation time (72 hours) as shown in FIG. 2B or C. Raw data of three independent experiments have been calculated to establish means, standard deviation and dose-effect curves of trans-7b.

SMILES	EC50 [µM]
Cc1cccc(NC(=O)C2c3ccccc3C(=O)N(c3ccccc3)C2c2ccccc2)n1 (stereo not drawn) [trans-7a, trans-N-(6-Methylpyridin-2-yl)-1-oxo-2,3-diphenyl-1,2,3,4-tetrahydroisoquinoline-4-carboxamide]	2.3
COc1ccc([C@H]2[C@H](C(=O)O)c3ccccc3C(=O)N2c2ccc(OC)cc2)cc1 (relative stereo) [cis-6d, Sodium trans-2,3-bis(4-methoxyphenyl)-1-oxo-1,2,3,4-tetrahydroisoquinoline-4-carboxylate]	> 100
Cc1cccc(NC(=O)C2c3ccccc3C(=O)N(c3ccc(Cl)cc3)C2c2ccc(Cl)cc2)n1 (stereo not drawn) [trans-7l, trans-2,3-Bis(4-chlorophenyl)-N-(6-methylpyridin-2-yl)-1-oxo-1,2,3,4-tetrahydroisoquinoline-4-carboxamide]	2.9
CNC(=O)C1c2ccccc2C(=O)N(c2ccc(OC)cc2)C1c1ccc(OC)cc1 (stereo not drawn) [trans-7g, trans-2,3-Bis(4-methoxyphenyl)-N-methyl-1-oxo-1,2,3,4-tetrahydroisoquinoline-4-carboxamide]	7.1
Cc1cccc(NC(=O)C2c3ccccc3C(=O)N(c3ccc(F)cc3)C2c2ccc(F)cc2)n1 (stereo not drawn) [trans-7k, trans-2,3-Bis(4-fluorophenyl)-N-(6-methylpyridin-2-yl)-1-oxo-1,2,3,4-tetrahydroisoquinoline-4-carboxamide]	6.4
Cc1cccc(NC(=O)C2c3ccccc3C(=O)N(c3ccc(O)cc3)C2c2ccc(O)cc2)n1 (stereo not drawn) [trans-7o, trans-2,3-Bis(4-hydroxyphenyl)-N-(6-methylpyridin-2-yl)-1-oxo-1,2,3,4-tetrahydroisoquinoline-4-carboxamide]	30
COc1ccc([C@H]2[C@@H](C(=O)O)c3ccccc3C(=O)N2c2ccc(OC)cc2)cc1 (relative stereo) [trans-6d, Sodium cis-2,3-bis(4-methoxyphenyl)-1-oxo-1,2,3,4-tetrahydroisoquinoline-4-carboxylate]	7.9
COc1ccc(C2C(C(=O)N(C)C)c3ccccc3C(=O)N2c2ccc(OC)cc2)cc1 (stereo not drawn) [trans-7h, trans-2,3-Bis(4-methoxyphenyl)-N,N-dimethyl-1-oxo-1,2,3,4-tetrahydroisoquinoline-4-carboxamide]	> 100
COc1ccc(C2C(C(=O)Nc3cc(C)cc(C)n3)c3ccccc3C(=O)N2c2ccccc2)cc1 (stereo not drawn) [trans-7r, trans-N-(4,6-Dimethylpyridin-2-yl)-3-(4-methoxyphenyl)-1-oxo-2-phenyl-1,2,3,4-tetrahydroisoquinoline-4-carboxamide]	0.34
COc1ccc(C2C(C(=O)Nc3cccc(C)n3)c3ccccc3C(=O)N2c2ccc(Oc3ccccc3)cc2)cc1 (stereo not drawn) [trans-7n, trans-3-(4-Methoxyphenyl)-N-(6-methylpyridin-2-yl)-1-oxo-2-(4-phenoxyphenyl)-1,2,3,4-tetrahydroisoquinoline-4-carboxamide]	> 100
Cc1cc(C)cc(C2C(C(=O)Nc3cccc(C)n3)c3ccccc3C(=O)N2c2cc(C)cc(C)c2)c1 (stereo not drawn) [trans-7m, trans-2,3-Bis(3,5-dimethylphenyl)-N-(6-methylpyridin-2-yl)-1-oxo-1,2,3,4-tetrahydroisoquinoline-4-carboxamide]	43
COc1ccc(C2C(C(=O)Nc3cccc(C)n3)c3ccccc3C(=O)N2c2ccc(OC)cc2)cc1 (stereo not drawn) [trans-7d, trans-2,3-Bis(4-methoxyphenyl)-N-(6-methylpyridin-2-yl)-1-oxo-1,2,3,4-tetrahydroisoquinoline-4-carboxamide]	0.68
COc1ccc(C2C(C(=O)Nc3ncccn3)c3ccccc3C(=O)N2c2ccccc2)cc1 (stereo not drawn) [trans-7p, trans-3-(4-Methoxyphenyl)-1-oxo-2-phenyl-N-(pyrimidin-2-yl)-1,2,3,4-tetrahydroisoquinoline-4-carboxamide]	0.2
COc1ccc(C2C(C(=O)Nc3ccccn3)c3ccccc3C(=O)N2c2ccc(OC)cc2)cc1 (stereo not drawn) [trans-7f, trans-2,3-Bis(4-methoxyphenyl)-1-oxo-N-(pyridin-2-yl)-1,2,3,4-tetrahydroisoquinoline-4-carboxamide]	0.53
COc1ccc(C2C(C(=O)Nc3cccc4c3CCCC4)c3ccccc3C(=O)N2c2ccc(OC)cc2)cc1 (stereo not drawn) [trans-7i, trans-2,3-Bis(4-methoxyphenyl)-1-oxo-N-(5,6,7,8-tetrahydronaphthalen-1-yl)-1,2,3,4-tetrahydroisoquinoline-4-carboxamide]	> 100
COc1ccc(C2C(C(=O)Nc3cc(C)cc(C)c3)c3ccccc3C(=O)N2c2ccc(OC)cc2)cc1 (stereo not drawn) [trans-7j, trans-N-(3,5-Dimethylphenyl)-2,3-bis(4-methoxyphenyl)-1-oxo-1,2,3,4-tetrahydroisoquinoline-4-carboxamide]	0.95
COc1ccc(C2C(C(=O)Nc3cccnc3)c3ccccc3C(=O)N2c2ccccc2)cc1 (stereo not drawn) [trans-7q, trans-3-(4-Methoxyphenyl)-1-oxo-2-phenyl-N-(pyridin-3-yl)-1,2,3,4-tetrahydroisoquinoline-4-carboxamide]	0.57

Same assay, conditions: Homo sapiens, INA-6, 72 h, read-out: INA-6 EC50(±sdv)

SMILES	EC50 [µM]
COc1ccc(C2C(C(=O)Nc3cccc(C)c3)c3ccccc3C(=O)N2c2ccc(OC)cc2)cc1 (stereo not drawn) [trans-7e, trans-2,3-Bis(4-methoxyphenyl)-1-oxo-N-(m-tolyl)-1,2,3,4-tetrahydroisoquinoline-4-carboxamide]	0.88
COc1ccc(N2C(=O)c3ccccc3[C@@H](C(=O)O)[C@@H]2c2ccccc2)cc1 (relative stereo) [trans-6c, Sodium trans-2-(4-methoxyphenyl)-1-oxo-3-phenyl-1,2,3,4-tetrahydroisoquinoline-4-carboxylate]	64
COc1ccc(N2C(=O)c3ccccc3[C@H](C(=O)O)[C@@H]2c2ccccc2)cc1 (relative stereo) [cis-6c, Sodium cis-2-(4-methoxyphenyl)-1-oxo-3-phenyl-1,2,3,4-tetrahydroisoquinoline-4-carboxylate]	> 100
COc1ccc([C@H]2[C@H](C(=O)O)c3ccccc3C(=O)N2c2ccccc2)cc1 (relative stereo) [trans-6b, Sodium trans-3-(4-methoxyphenyl)-1-oxo-2-phenyl-1,2,3,4-tetrahydroisoquinoline-4-carboxylate]	2

Same assay, conditions: INA-6 multiple myeloma cells, 72 hours of treatment, viable cell fraction; mean of at least three determinations; read-out: INA-6 EC50(±sdv)

SMILES	EC50 [µM]
COc1ccc(C2C(C(=O)O)c3ccccc3C(=O)N2c2ccc(OC)cc2)cc1 (stereo not drawn) [trans-5d, trans-2,3-Bis(4-methoxyphenyl)-1-oxo-1,2,3,4-tetrahydroisoquinoline-4-carboxylic acid]	10.1

System: not given
Experiment: not given
Conditions: not given

SMILES	melting point [°C]
O=C(O)[C@@H]1c2ccccc2C(=O)N(c2ccc(F)cc2)[C@H]1c1ccc(F)cc1 (relative stereo) [trans-5e, trans-2,3-Bis(4-fluorophenyl)-1-oxo-1,2,3,4-tetrahydroisoquinoline-4-carboxylic acid]	116 to 118
COc1ccc(C2C(C(=O)O)c3ccccc3C(=O)N2c2ccc(OC)cc2)cc1 (stereo not drawn) [trans-5d, trans-2,3-Bis(4-methoxyphenyl)-1-oxo-1,2,3,4-tetrahydroisoquinoline-4-carboxylic acid]	201 to 203
COc1ccc([C@H]2[C@H](C(=O)O)c3ccccc3C(=O)N2c2ccc(Oc3ccccc3)cc2)cc1 (relative stereo) [trans-5h, trans-3-(4-Methoxyphenyl)-1-oxo-2-(4-phenoxyphenyl)-1,2,3,4-tetrahydroisoquinoline-4-carboxylic acid]	109 to 115
O=C(O)[C@@H]1c2ccccc2C(=O)N(c2ccc(Cl)cc2)[C@H]1c1ccc(Cl)cc1 (relative stereo) [trans-5f, trans-2,3-Bis(4-chlorophenyl)-1-oxo-1,2,3,4-tetrahydroisoquinoline-4-carboxylic acid]	116 to 127
